Measured values: patent US10995064B2, “Sulfamoyl-arylamides and the use thereof as medicaments for the treatment of hepatitis B” (priority 2012, dated 2021)

Assays:
[1] = system: HBV; assay: anti HBV activity, HepG2.117 inducible (Tet-off) cell line, intracellular HBV DNA by realtime PCR; format: cell-based; details: HepG2.117 cells, 3 days of treatment
[2] = system: HBV; assay: anti-HBV activity, HepG2.2.15 stable transfected cell line, HBV DNA from secreted virions by realtime PCR; format: cell-based; details: HepG2.2.15 cells, 6 days of treatment, secreted virion HBV DNA
[3] = system: HepG2 cells; assay: Cytotoxicity in HepG2 cells, 4 days, Resazurin assay; details: read-out: HepG2 4 days CC50, 4 days, Resazurin
[4] = system: HepG2 cells; assay: Cytotoxicity in HepG2 cells using CellTiter-Blue; format: cell-based; details: 6 days
[5] = Cytotoxicity in HepG2 cells, 4 days, Resazurin assay; details: human

Row | Structure (SMILES) | EC50 [2] | CC50 [3] | further results
1 | COC(=O)N1CCCC(NS(=O)(=O)c2cccc(C(=O)Nc3ccc(F)c(C)c3)c2)C1 (racemic) [Compound 159] |  |  | EC50 ([1]; Hepatitis B virus, 72 h): 300 nM
2 | COC(=O)N1CCCC(NS(=O)(=O)c2cccc(C(=O)Nc3ccc(F)c(C)c3)c2)C1 (racemic) [Compound 159a] | 170 nM |  | EC50 [1]: 860 nM
3 | COC(=O)N1CCCC(NS(=O)(=O)c2cccc(C(=O)Nc3ccc(F)c(C)c3)c2)C1 (racemic) [Compound 159b] | 160 nM |  | EC50 [1]: 230 nM
4 | Cc1cc(NC(=O)c2cccc(S(=O)(=O)NC3CC(=O)N(C)C3)c2)ccc1F (racemic) [Compound 179] |  |  | EC50 ([1]; Hepatitis B virus, 72 h): 440 nM; EC50 ([2]; Hepatitis B virus, 144 h): 210 nM
5 | Cc1cc(NC(=O)c2cccc(S(=O)(=O)NC3CC(=O)N(C)C3)c2)ccc1F (racemic) [Compound 179a] | 380 nM | > 25 µM | EC50 [1]: 250 nM
6 | Cc1cc(NC(=O)c2cccc(S(=O)(=O)NC3CC(=O)N(C)C3)c2)ccc1F (racemic) [Compound 179b] | 1110 nM | > 25 µM | EC50 [1]: 1840 nM
7 | Cc1cc(NC(=O)c2cccc(S(=O)(=O)N[C@@H]3CCC[C@H](O)C3)c2)ccc1F (single isomer, unassigned) [Compound 134b, N-(4-fluoro-3-methyl-phenyl)-3-[[(1R,3S)-3-hydroxycyclohexyl]sulfamoyl]benzamide or N-(4-fluoro-3-methyl-phenyl)-3-[[(1S,3R)-3-hydroxycyclohexyl]sulfamoyl]benzamide] |  |  | EC50 [1]: 200 nM
8 | Cc1cc(NC(=O)c2cccc(S(=O)(=O)N[C@H]3Cc4ccccc4[C@@H]3O)c2)ccc1F (single isomer, unassigned) [Compound 141a, N-(4-fluoro-3-methyl-phenyl)-3-[[(1S,2S)-1-hydroxyindan-2-yl]-sulfamoyl]benzamide or N-(4-fluoro-3-methyl-phenyl)-3-[[(1R,2R)-1-hydroxyindan-2-yl]sulfamoyl]benzamide] | 700 nM | > 25 µM | 
9 | Cc1cc(NC(=O)c2cccc(S(=O)(=O)N[C@H]3Cc4ccccc4[C@H]3O)c2)ccc1F (single isomer, unassigned) [Compound 141b, N-(4-fluoro-3-methyl-phenyl)-3-[[(1R,2S)-1-hydroxyindan-2-yl]sulfamoyl]benzamide or N-(4-fluoro-3-methyl-phenyl)-3-[[(1S,2R)-1-hydroxyindan-2-yl]sulfamoyl]benzamide] |  | > 25 µM | 
10 | Cc1cc(NC(=O)c2cccc(S(=O)(=O)N[C@@H]3CC[C@H](O)C3)c2)ccc1F (single isomer, unassigned) [Compound 145a, N-(4-fluoro-3-methyl-phenyl)-3-[[(1R,3S)-3-hydroxycyclopentyl]sulfamoyl]benzamide or N-(4-fluoro-3-methyl-phenyl)-3-[[(1S,3R)-3-hydroxycyclopentyl]sulfamoyl]benzamide] |  | > 25 µM | 
11 | Cc1cc(NC(=O)c2cccc(S(=O)(=O)N[C@H]3CC[C@H](O)C3)c2)ccc1F (single isomer, unassigned) [Compound 145c, N-(4-fluoro-3-methyl-phenyl)-3-[[(1S,3S)-3-hydroxycyclopentyl]-sulfamoyl]benzamide or N-(4-fluoro-3-methyl-phenyl)-3-[[(1R,3R)-3-hydroxycyclopentyl]sulfamoyl]benzamide] |  | > 25 µM | 
12 | Cc1cc(NC(=O)c2cccc(S(=O)(=O)N[C@H]3CC[C@H](O)C3)c2)ccc1F (single isomer, unassigned) [Compound 145d, N-(4-fluoro-3-methyl-phenyl)-3-[[(1S,3S)-3-hydroxycyclopentyl]-sulfamoyl]benzamide or N-(4-fluoro-3-methyl-phenyl)-3-[[(1R,3R)-3-hydroxycyclopentyl]sulfamoyl]benzamide] | 400 nM |  | 
13 | CC1(NS(=O)(=O)c2cccc(C(=O)Nc3ccc(F)cc3)c2)COC1 [Compound 4] |  | > 100 µM | EC50 ([1]; Hepatitis B virus, 72 h): 930 nM; EC50 ([2]; Hepatitis B virus, 144 h): 960 nM
14 | O=C(Nc1ccccc1)c1cc(S(=O)(=O)N2CCCCC2)c(Cl)cc1Cl [Compound 20] |  | 79.6 µM | 
15 | Cc1ccccc1NC(=O)c1cccc(S(=O)(=O)NC2CCCCC2)c1 [Compound 34] |  |  | CC50 [4]: > 25 µM; EC50 ([2]; Hepatitis B virus, 144 h): 4180 nM
16 | O=C(Nc1ccc(F)cc1)c1cc(S(=O)(=O)N2CCCCC2)cs1 [Compound 61] |  | 35.7 µM | 
17 | CC1(NS(=O)(=O)c2cccc(C(=O)Nc3ccc(F)cc3)c2)CCOCC1 [Compound 83] |  |  | CC50 at 4 days [5]: > 25 µM
18 | Cc1cc(NC(=O)c2cccc(S(=O)(=O)NC3CCCC(O)C3)c2)ccc1F (centres unmarked) [Compound 134] |  |  | EC50 ([2]; Hepatitis B virus, 144 h): 180 nM
